Laboratory results from patent US20230373930A1, “AMINOIMIDAZOLE FPR2 AGONISTS” (BRISTOL-MYERS SQUIBB COMPANY, priority 2020, published 2023).

Columns and labels:
human FPR2 = biological target: T1, human FPR2 (Homo sapiens, UniProt P25090); assay: FPR2 cyclic adenosine monophosphate (cAMP) assay; type: cell-based; details: CHO cells overexpressing human FPR2; forskolin 5 μM; inhibition of cAMP production; HTRF; read-out: hFPR2 cAMP2 EC50
T1 sequence (P25090 1-351): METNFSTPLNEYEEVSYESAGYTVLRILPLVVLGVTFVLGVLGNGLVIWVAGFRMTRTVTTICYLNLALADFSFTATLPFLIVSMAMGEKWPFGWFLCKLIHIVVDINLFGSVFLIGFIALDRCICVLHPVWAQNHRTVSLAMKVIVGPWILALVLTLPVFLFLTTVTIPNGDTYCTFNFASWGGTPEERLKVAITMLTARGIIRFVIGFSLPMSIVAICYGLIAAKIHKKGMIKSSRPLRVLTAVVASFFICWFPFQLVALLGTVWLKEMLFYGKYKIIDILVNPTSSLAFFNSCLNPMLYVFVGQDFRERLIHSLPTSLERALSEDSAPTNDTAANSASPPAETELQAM
Experimental: (§1) FPR2 and FPR1 Cyclic Adenosine Monophosphate (cAMP) Assays. A mixture of forskolin (5 μM final for FPR2 or 10 μM final for FPR1) and IBMX (200 μM final) were added to 384-well Proxiplates (Perkin-Elmer) pre-dotted with test compounds in DMSO (1% final) at final concentrations in the range of 0.020 nM to 100 μM. Chinese Hamster Ovary cells (CHO) overexpressing human FPR1 or human FPR2 receptors were cultured in F-12 (Ham's) medium supplemented with 10% qualified FBS, 250 μg/ml zeocin and 300 μg/ml hygromycin (Life Technologies). Reactions were initiated by adding 2,000 human FPR2 cells per well or 4,000 human FPR1 cells per well in Dulbecco's PBS (with calcium and magnesium) (Life Technologies) supplemented with 0.1% BSA (Perkin-Elmer). The reaction mixtures were incubated for 30 min at room temperature. The level of intracellular cAMP was determined using the HTRF HiRange cAMP assay reagent kit (Cisbio) according to manufacturer's instruction. Solutions of cryptate conjugated anti-cAMP and d2 flurorophore-labelled cAMP were made in a supplied lysis buffer separately. Upon completion of the reaction, the cells were lysed with equal volume of the d2-cAMP solution and anti-cAMP solution. After a 1-h room temperature incubation, time-resolved fluorescence intensity was measured using the Envision (Perkin-Elmer) at 400 nm excitation and dual emission at 590 nm and 665 nm. A calibration curve was constructed with an external cAMP standard at concentrations ranging from 1 μM to 0.1 μM by plotting the fluorescent intensity ratio from 665 nm emission to the intensity from the 590 nm emission against cAMP concentrations. The potency and activity of a compound to inhibit cAMP production was then determined by fitting to a 4-parametric logistic equation from a plot of cAMP level versus compound concentrations.

human FPR1 = biological target: T2, human FPR1 (Homo sapiens, UniProt P21462); assay: FPR1 cyclic adenosine monophosphate (cAMP) assay; type: cell-based; details: CHO cells overexpressing human FPR1; forskolin 10 μM; inhibition of cAMP production; HTRF; read-out: hFPR1 cAMP2 EC50
T2 sequence (P21462 1-350): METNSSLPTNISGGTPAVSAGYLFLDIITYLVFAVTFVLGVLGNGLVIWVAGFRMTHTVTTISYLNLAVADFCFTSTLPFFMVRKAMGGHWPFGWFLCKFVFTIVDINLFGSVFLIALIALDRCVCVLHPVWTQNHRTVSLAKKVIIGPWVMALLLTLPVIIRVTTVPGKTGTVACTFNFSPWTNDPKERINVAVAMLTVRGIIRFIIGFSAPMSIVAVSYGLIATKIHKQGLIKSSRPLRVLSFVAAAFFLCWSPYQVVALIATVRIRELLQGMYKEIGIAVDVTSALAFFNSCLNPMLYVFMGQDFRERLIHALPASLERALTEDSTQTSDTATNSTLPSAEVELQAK
Experimental: as §1

Structure (SMILES)	EC50 (human FPR2)	EC50 (human FPR1)
COc1ccc(-n2cc(C34CC5CC(CC(C5)C3)C4)nc2NC(=O)c2ccc(OC(F)F)cc2)cc1 [Example 31, N-[4-(Adamantan-1-yl)-1-(4-methoxyphenyl)-1H-imidazol-2-yl]-4-(difluoromethoxy)benzamide]	320 nM	> 10000 nM
CCOC(=O)c1cn(-c2ccc(OC)cc2)c(NC(=O)c2ccc(OC(F)F)cc2)n1 [Example 30, Ethyl 2-[4-(difluoromethoxy)benzamido]-1-(4-methoxyphenyl)-1H-imidazole-4-carboxylate]	9 nM	100 nM
CCNC(=O)N1CCC(c2cn(-c3c(F)cc(OC)cc3F)c(NC(=O)c3ccc(OC(F)F)cc3)n2)CC1 [Example 66, 4-[1-(2,6-Difluoro-4-methoxyphenyl)-2-[4-(difluoromethoxy)benzamido]-1H-imidazol-4-yl]-N-ethylpiperidine-1-carboxamide]	28 nM	540 nM
COc1cc(F)c(-n2cc(-c3ccc(C(F)(F)F)cc3)nc2NC(=O)c2ccc(OC(F)F)cc2)c(F)c1 [Example 6, N-[1-(2,6-Difluoro-4-methoxyphenyl)-4-[4-(trifluoromethyl)phenyl]-1H-imidazol-2-yl]-4-(difluoromethoxy)benzamide]	76 nM	120 nM
COc1cc(F)c(-n2cc(CC(C)C)nc2NC(=O)c2ccc(OC(F)F)cc2)c(F)c1 [Example 35, N-[1-(2,6-Difluoro-4-methoxyphenyl)-4-(2-methylpropyl)-1H-imidazol-2-yl]-4-(difluoromethoxy)benzamide]	99 nM	1400 nM
COc1cc(F)c(-n2cc(C3CCC(O)CC3)nc2NC(=O)c2ccc(OC(F)F)cc2)c(F)c1 (stereo not drawn) [Example 76, N-(1-(2,6-Difluoro-4-methoxyphenyl)-4-(4-hydroxycyclohexyl)-1H-imidazol-2-yl)-4-(difluoromethoxy)benzamide]	10 nM	240 nM
COc1cc(F)c(-n2cc(-c3ccc(Cl)cc3)nc2NC(=O)c2ccc(OC(F)F)cc2)c(F)c1 [Example 11, N-[4-(4-Chlorophenyl)-1-(2,6-difluoro-4-methoxyphenyl)-1H-imidazol-2-yl]-4-(difluoromethoxy)benzamide]	24 nM	140 nM
COc1cc(F)c(-n2cc(-c3nccs3)nc2NC(=O)c2ccc(OC(F)F)cc2)c(F)c1 [Example 40, N-[1-(2,6-Difluoro-4-methoxyphenyl)-4-(1,3-thiazol-2-yl)-1H-imidazol-2-yl]-4-(difluoromethoxy)benzamide]	11 nM	1000 nM
COc1cc(F)c(-n2cc(Cc3nc4ncc(F)cc4[nH]3)nc2NC(=O)c2ccc(OC(F)F)cc2)c(F)c1 [Example 77, N-(1-(2,6-Difluoro-4-methoxyphenyl)-4-((6-fluoro-1H-imidazo[4,5-b]pyridin-2-yl)methyl)-1H-imidazol-2-yl)-4-(difluoromethoxy)benzamide]	13 nM	120 nM
COc1cc(F)c(-n2cc(C3CC(N)C3)nc2NC(=O)c2ccc(OC(F)F)cc2)c(F)c1 (stereo not drawn) [Example 81, N-[4-(3-aminocyclobutyl)-1-(2,6-difluoro-4-methoxyphenyl)-1H-imidazol-2-yl]-4-(difluoromethoxy)benzamide]	4 nM	5400 nM
COc1ccc(-n2cc(-c3ccccn3)nc2NC(=O)c2ccc(OC(F)F)cc2)cc1 [Example 28, 4-(Difluoromethoxy)-N-[1-(4-methoxyphenyl)-4-(pyridin-2-yl)-1H-imidazol-2-yl]benzamide]	700 nM	1030 nM
COc1ccc(-n2cc(C(=O)NCCCO)nc2NC(=O)c2ccc(OC(F)F)cc2)cc1 [Example 46, 2-[4-(Difluoromethoxy)benzamido]-N-(3-hydroxypropyl)-1-(4-methoxyphenyl)-1H-imidazole-4-carboxamide]	27 nM	210 nM
COc1cc(F)c(-n2cc(-c3ccc(C#N)cc3)nc2NC(=O)c2ccc(OC(F)F)cc2)c(F)c1 [Example 16, N-[4-(4-Cyanophenyl)-1-(2,6-difluoro-4-methoxyphenyl)-1H-imidazol-2-yl]-4-(difluoromethoxy)benzamide]	27 nM	230 nM
COc1ccc(-n2cc(C3CCCNC3)nc2NC(=O)c2ccc(OC(F)F)cc2)cc1 (stereo not drawn) [Example 64, 4-(Difluoromethoxy)-N-[1-(4-methoxyphenyl)-4-(piperidin-3-yl)-1H-imidazol-2-yl]benzamide]	11 nM	210 nM
COc1ccc(-n2cc(-c3nccs3)nc2NC(=O)c2ccc(OC(F)F)cc2)cc1 [Example 24, 4-(Difluoromethoxy)-N-[1-(4-methoxyphenyl)-4-(1,3-thiazol-2-yl)-1H-imidazol-2-yl]benzamide]	9 nM	110 nM
COc1cc(F)c(-n2cc(Cc3nnc(C)o3)nc2NC(=O)c2ccc(OC(F)F)cc2)c(F)c1 [Example 73, N-(1-(2,6-Difluoro-4-methoxyphenyl)-4-((5-methyl-1,3,4-oxadiazol-2-yl)methyl)-1H-imidazol-2-yl)-4-(difluoromethoxy)benzamide]	23 nM	300 nM
COc1cc(F)c(-n2cc(C(=O)N3CCC(CO)CC3)nc2NC(=O)c2ccc(OC(F)F)cc2)c(F)c1 [Example 69, N-[1-(2,6-difluoro-4-methoxyphenyl)-4-[4-(hydroxymethyl)piperidine-1-carbonyl]-1H-imidazol-2-yl]-4-(difluoromethoxy)benzamide]	86 nM	2990 nM

Next, values leading:

EC50 (human FPR2)	EC50 (human FPR1)	Structure (SMILES)
8 nM	88 nM	COc1cccc(-c2cn(-c3c(F)cc(OC)cc3F)c(NC(=O)c3ccc(OC(F)F)cc3)n2)c1 [Example 3, N-[1-(2,6-Difluoro-4-methoxyphenyl)-4-(3-methoxyphenyl)-1H-imidazol-2-yl]-4-(difluoromethoxy)benzamide]
48 nM	370 nM	COc1cc(F)c(-n2cc(C(=O)NCc3cc[nH]n3)nc2NC(=O)c2ccc(OC(F)F)cc2)c(F)c1 [Example 44, 1-(2,6-Difluoro-4-methoxyphenyl)-2-[4-(difluoromethoxy)benzamido]-N-[(1H-pyrazol-3-yl)methyl]-1H-imidazole-4-carboxamide]
35 nM	110 nM	COc1cc(F)c(-n2cc(C(=O)NCc3cccnc3)nc2NC(=O)c2ccc(OC(F)F)cc2)c(F)c1 [Example 47, 1-(2,6-Difluoro-4-methoxyphenyl)-2-[4-(difluoromethoxy)benzamido]-N-[(pyridin-3-yl)methyl]-1H-imidazole-4-carboxamide]
22 nM	470 nM	CCOC(=O)Cc1cn(-c2c(F)cc(OC)cc2F)c(NC(=O)c2ccc(OC(F)F)cc2)n1 [Example 72, ethyl 2-[1-(2,6-difluoro-4-methoxyphenyl)-2-[4-(difluoromethoxy)benzamido]-1H-imidazol-4-yl]acetate]
23 nM	> 10000 nM	COc1cc(F)c(-n2cc(C3CC4(CNC4)C3)nc2NC(=O)c2ccc(OC(F)F)cc2)c(F)c1 [Example 75, N-(1-(2,6-Difluoro-4-methoxyphenyl)-4-(2-azaspiro[3.3]heptan-6-yl)-1H-imidazol-2-yl)-4-(difluoromethoxy)benzamide]
8 nM	230 nM	COc1cc(F)c(-n2c(NC(=O)c3ccc(OC(F)F)cc3)nc(-c3ccccc3)c2C)c(F)c1 [Example 8, N-[1-(2,6-Difluoro-4-methoxyphenyl)-5-methyl-4-phenyl-1H-imidazol-2-yl]-4-(difluoromethoxy)benzamide]
48 nM	57 nM	COc1ccc(-n2cc(C(F)(F)C(F)(F)F)nc2NC(=O)c2ccc(OC(F)F)cc2)cc1 [Example 42, 4-(Difluoromethoxy)-N-[1-(4-methoxyphenyl)-4-(1,1,2,2,2-pentafluoroethyl)-1H-imidazol-2-yl]benzamide]
